These results are taken from patent publication US20130129681A1, “METHODS FOR DIAGNOSING SOLID TUMORS” (NODALITY, INC., priority 2011, published 2013).

For series [1], the system named is p-AKT and p-ERK in epithelial cells of pleural effusion. Kind of series: SCNP of pleural effusion, patient MCSF-015 (non-small cell lung cancer): p-AKT and p-ERK. The format is cell-based, human. As for the experimental part: A procedure similar to that shown for Example 5 was performed. A pleural effusion was obtained from a patient (MCSF-015) with a diagnosis of non-small cell lung cancer with a white cell count of 150 million.
The HT-1376 epithelial bladder cancer cell line served as a positive control for EGF induced signaling. The control cell line was processed in parallel with the patient sample.
SCNP contour plots identify p-AKT and p-ERK signaling in the epithelial cell compartment only. […] EGF stimulation (5 min., 37° C.) activates the PI3K and Ras/MEK pathways which are measured by p-Akt and p-ERK respectively. […] Median fluorescent values of p-AKT and p-ERK under each treatment condition.

Series [2] concerns p-AKT and p-ERK (PI3K and MAP Kinase pathways) in epithelial cells of bladder washes. Briefly: SCNP of bladder wash samples: p-AKT and p-ERK at baseline and after EGF +/- GDC-0941. The class given is cell-based, human. The procedure: Bladder washes from non-cancer (NC) patients (pts) (n=8) and confirmed/suspected bladder cancer (BC) pts (n=20) were collected using standard medical practice and shipped overnight on ice for processing within 24 hours. Antibodies against CD45, Cytokeratin (CK), and EpCAM were used to differentiate epithelial cells from leukocytes, while measurements of DNA aneuploidy (DAPI stain) allowed for distinction between tumor and normal epithelial cells. Signaling activity in the PI3K and MAP Kinase pathways was assessed by measuring intracellular levels of p-AKT and p-ERK both at baseline and in response to pathway modulation. A process similar to that shown in Example 1 was used.
(§1) Upon delivery, cells were pelleted, counted, rested for 1 hr at 37° C., followed by a 5 minute stimulation with EGF or vehicle+/−GDC-0941 200 nM added 1 hr prior to EGF addition to inhibit PI3K signaling After cell fixation and permeabilization, samples were stained with fluorophore-conjugated antibodies/DAPI cocktail, and the data acquired using multi-parametric flow cytometry. The epithelial bladder carcinoma cell line HT-1376 was used as a control for the epithelial phenotype and EGF signaling. A DNA index was determined using the lymphoid population in the pt samples as a diploid G0/G1 reference.

Series [3] relates to p-AKT and p-ERK in epithelial cells of ascites fluid. Kind of series: SCNP of ascites fluid, patient MCSF-02 (biliary cancer): p-AKT and p-ERK. The format is cell-based, human. As for the experimental part:
A procedure similar to that shown for Example 5 was performed. Ascites fluid was obtained from a patient (MCSF-02) with a diagnosis of biliary cancer with a white cell count of 4.3 million. This example has the same purpose as Example 5 as applied to ascites fluid.
Gating Scheme: The epithelial phenotype is based on the cells being positive for EpCAM and cytokeratin, while expressing low levels of CD45. Positive staining for cleaved PARP (c-PARP) indicates apoptosis. DNA index: The DNA index of the epithelial cells is based on the DNA content of the cells in the epithelial gate divided by the DNA content of the lymphocytes.
The biliary specimen contained 0.17% epithelial cells that were mostly non-apoptotic. This small percentage equates to ˜10 cells/condition. From this small population EGF induced p-AKT signaling was observed. A 9-fold increase in p-AKT levels were observed after […]. EGF stimulation. Induced signaling was attenuated with a 1 hour pre-incubation with 200 nM GDC-0941 (“GDC”). […] This is in contrast to the control cell line.

The subject of another series is HT-1376 cells. Kind of series: HT-1376 bladder cancer cells spiked into whole blood, EGF-induced pAKT and pERK. The class given is cell-based. The conditions noted are these: HT-1376 in whole blood; 200 ng/mL EGF for 5 minutes at 37° C. The procedure:
A procedure similar to that shown for Example 1 was performed.
Two aliquots of 1 million cells from a bladder cancer cell line, HT-1376, were spiked into 4 mls of whole blood in an effort to determine a lower limit of detection for bladder cancer cells in blood. The epithelial cell line, HT-1376 (ATCC #CRL-1472), which has high (positive) levels of cytokeratin, low (positive) levels for EpCAM, and negative for CD45. One aliquot was preincubated with PI3K inhibitor GDC-0941 at 10 uM and another was modulated with 200 ng/mL EGF for 5 minutes at 37° C. Another aliquot of whole blood contained no HT-1376 cells or other reagents. BD phosflow fix/lyse reagent was used followed by methanol. EGF was used as a modulator to induce pAKT and pERK responses, 9.4 and 3.7 fold responses respectively.

For another series, the system named is pleural effusion cells. Briefly: Culture of pleural effusion cells (MCSF-04) in presence and absence of EGF. The class given is cell-based, human. As for the experimental part: (§2) Purpose: (1) Evaluate ability to detect epithelial cells in the pleural effusion sample. (2) Measure DNA content to evaluate whether detected cells are possibly originating from the tumor (aneuploid). (3) measure basal level p-AKT and p-ERK signaling in epithelial cells. (4) Measure evoked signaling after EGF stimulation in the same cell populations. (5) Measure signaling inhibition when the EGF is added after incubation with a PI3K inhibitor (GDC-0941). (6) Culture cells in the presence and absence of EGF to observe possible growth promoting effects and to potentially characterize the signaling of cells that expand.
Cells in culture: 1 million cells were plated in two wells of a 24-well plate in the presence and absence of EGF. The cells visually appeared healthy after 48 hrs in culture with some cells with elongated appearance like an epithelial cells. Some very large round cells were also observed. At day 8, both cultures had adherent and non-adherent cells. Counts were performed. The well without EGF contained 400,000 viable, non-adherent cells while the well in the presence +EGF contained 800,000. The patient specimen contained 15.87% epithelial cells that were mostly non-apoptotic. The DNA index is 1.37 indicating the epithelial cells are aneuploid.

Series [4] deals with EGF signaling in epithelial cells of ascites or pleural effusion samples. Briefly: Summary of SCNP analysis of ascites or pleural effusion samples. The format is cell-based, human. The source says: This analysis identified epithelial cells with inducible EGF signaling in ⅘ ascites or pleural effusion samples. In each of the 4 positive cases, induced signaling was inhibited by the PI3K inhibitor, GDC-0941.

Series [5] deals with p-AKT and p-ERK in epithelial cells of pleural effusion. Briefly: SCNP of pleural effusion, patient MCSF-04 (non-small cell lung cancer): p-AKT and p-ERK. The class given is cell-based, human. As for the experimental part: A procedure similar to that shown for Example 1 was performed. A pleural effusion was obtained from a patient (MCSF-04) with a diagnosis of non-small cell lung cancer with a white cell count of 21 million.
as §2
Gating Scheme: The epithelial phenotype is based on the cells being positive for EpCAM and Cytokeratin stains, while expressing low levels of CD45.
SCNP contour plots show signaling in the epithelial cell compartment only. […] EGF stimulation (5 min., 37° C.) activates the PI3K and Ras/MEK pathways which are measured by p-AKT and p-ERK respectively. Attenuation of the EGF→p-AKT induced signaling in the presence of GDC-0941.

The test system is the same in series [6]. Kind of series: SCNP of pleural effusion, patient MCSF-06 (non-small cell lung cancer): p-Akt and p-ERK. The class given is cell-based, human. As for the experimental part: A procedure similar to that shown for Example 5 was performed. A pleural effusion was obtained from a patient (MCSF-06) with a diagnosis of non-small cell lung cancer with a white cell count of 6.8 million. This example has the same Purpose as Example 5 as applied to lung cancer. The HT-1376 epithelial bladder cancer cell line served as a positive control for EGF induced signaling.
SCNP contour plots identify p-Akt and p-ERK signaling in the epithelial cell compartment only. […] EGF stimulation (5 min., 37° C.) activates the PI3K and Ras/MEK pathways which are measured by p-Akt and p-ERK respectively. […] Median fluorescent values of p-Akt and p-ERK under each treatment condition (see FIG. 5). The control cell line was processed in parallel with the patient sample.

For another series, the system named is HT-1376 cell line. Briefly: Control cell line HT-1376 processed with the ascites sample, EGF-induced p-Erk. Conditions: HT-1376 control cell line. The class given is cell-based. As for the experimental part: as §1
The cell line control has what appears to be a lower basal p-ERK level, however one must be careful when comparing absolute fluorescent levels between different cell types (ie, cell line vs primary cells) due to differences in autofluoresence and degree of non-specific antibody binding. […] The DNA index is near 1.0 indicating these cells are not aneuploid.

Another series relates to MDS patients. The conditions noted are these: cited from earlier work.

Entries after “also recorded” stand apart in the source; their conditions may differ.

Regarding “EGF: Epidermal growth factor, growth factor used as modulator to induce p-AKT and p-ERK”, the “EGF induction, above basal signaling, of p-Akt and p-ERK in epithelial cells” value in [1] (MCSF-015, EGF 5 min., 37° C.) is reported as “strong”. Further, the “EGF-induced p-AKT and p-ERK signaling, increase over baseline” value in [2] (3/10 BC evaluable bladder wash samples, 5 minute stimulation with EGF) is listed as 2-3 fold. For the same compound, the “EGF-induced signaling in NC specimens” value in series [2] (non-cancer (NC) bladder wash specimens, 5 minute stimulation with EGF) is on record as “no EGF-induced signaling was observed”. For the same compound, in [3] (MCSF-02 ascites), the “EGF induction of p-AKT in epithelial cells” value is “strong” and the “EGF induction of p-Erk in epithelial cells” value is given as “no significant increase above baseline; also recorded: no p-Erk induction above baseline was detected”. Moreover, in series [3] (MCSF-02 ascites epithelial cells, 10 mins. EGF stimulation), the “increase in p-AKT levels after EGF stimulation” value is 9 fold. In the series with HT-1376 cells, the “EGF-induced pAKT response” value is given as 9.4 fold and the “EGF-induced pERK response” value amounted to 3.7 fold. The “viable, non-adherent cells per well at day 8” value in the series with pleural effusion cells (1 million cells plated, 24-well plate, presence of EGF (well without EGF 400,000)) is recorded as 800,000 cells. In the series on pleural effusion cells (MCSF-04 cells, EGF induced condition), the proliferation in culture entry is “Proliferation was observed”. In [4] (ascites or pleural effusion samples), the “samples in which epithelial cells with inducible EGF signaling were identified” value is “⅘”. Also, the “EGF induction of p-AKT and p-ERK in epithelial cells” value in series [5] (MCSF-04 pleural effusion, EGF 5 min., 37° C.) was “strong”. Besides, in series [6] (MCSF-06, EGF 5 min., 37° C.), the “EGF induction, above basal signaling, of p-Akt and p-ERK in epithelial cells” value is recorded as “strong”. Moreover, the “EGF induction of p-Erk in control cell line” value in the series with HT-1376 cell line is recorded as “observed”.

Take `CCOC(=O)[C@@H](N)CCC(=O)N[C@@H](CSCc1ccccc1)C(=O)N[C@@H](C(=O)OCC)c1ccccc1` [TLK-199]: in the series on MDS patients, the “hematologic response in trial” value is given as “hematologic improvement in all three hematopoietic lineages”; the toxicities in trial result was “limited to infusion reactions, nausea, chills and bone pain”.

For `CS(=O)(=O)N1CCN(Cc2cc3nc(-c4cccc5[nH]ncc45)nc(N4CCOCC4)c3s2)CC1` [GDC-0941], the “effect on EGF-induced p-Akt signaling” value in series [1] (MCSF-015 epithelial cells) and in series [6] (MCSF-06 epithelial cells) was “Attenuation; also recorded: attenuated” throughout. In addition, the “effect on basal p-Akt signaling” value in series [1] (MCSF-015 epithelial cells) and in series [6] (MCSF-06 epithelial cells) was “attenuated” throughout. The “effect on p-ERK signaling” value in series [1] (MCSF-015 epithelial cells) and in series [6] (MCSF-06 epithelial cells) was “but not the p-ERK signaling” each time. For the same compound, the “prevention of EGF-induced p-AKT and p-ERK signaling” value in series [2] (BC samples, GDC-0941 200 nM added 1 hr prior to EGF) is reported as “preventable”. Moreover, the “effect on basal (unstim) p-AKT level” value in [3] (MCSF-02, 200 nM GDC-0941) is listed as “inability of the PI3K inhibitor to decrease p-AKT beyond the basal”. Moreover, the “effect on EGF-induced p-AKT signaling” value is “attenuated” in [3] (MCSF-02, 1 hour pre-incubation with 200 nM GDC-0941) and “attenuated; also recorded: Attenuation” in [5] (MCSF-04 epithelial cells, EGF added after incubation with GDC-0941). Also, in [3] (MCSF-02 epithelial cells), the “basal p-ERK, unstimulated condition versus GDC containing sample” value is “higher than the GDC containing sample”. Moreover, the “effect on EGF-induced signaling in the positive samples” value in [4] (each of the 4 positive ascites or pleural effusion cases) is on record as “inhibited”. The “effect on basal p-AKT signaling” value in [5] (MCSF-04 epithelial cells, GDC-0941 incubation) is recorded as “attenuated”.
